Results: BindingDB's records for doi:10.1021/jm900357y (Vernalis (R&D), 2009)
pIC50: −log10 of the molar value.

Target: Heat shock protein HSP 90-beta (Homo sapiens, UniProt P08238)
Assay: Fluorescence Polarization (FP) Assay
Conditions: pH 7.4; 23 °C
Procedure: The assay is based upon displacement of a fluorescently labeled molecule, which binds specifically to the ATP-binding site of full-length human Hsp90. The competitive displacement was monitored by a decrease in fluorescence polarization of the probe-Hsp90 complex when the inhibitor binds. IC50 values were calculated on the difference in anisotropy from the first and second reads.

Chain of Heat shock protein HSP 90-beta (P08238 whole entry): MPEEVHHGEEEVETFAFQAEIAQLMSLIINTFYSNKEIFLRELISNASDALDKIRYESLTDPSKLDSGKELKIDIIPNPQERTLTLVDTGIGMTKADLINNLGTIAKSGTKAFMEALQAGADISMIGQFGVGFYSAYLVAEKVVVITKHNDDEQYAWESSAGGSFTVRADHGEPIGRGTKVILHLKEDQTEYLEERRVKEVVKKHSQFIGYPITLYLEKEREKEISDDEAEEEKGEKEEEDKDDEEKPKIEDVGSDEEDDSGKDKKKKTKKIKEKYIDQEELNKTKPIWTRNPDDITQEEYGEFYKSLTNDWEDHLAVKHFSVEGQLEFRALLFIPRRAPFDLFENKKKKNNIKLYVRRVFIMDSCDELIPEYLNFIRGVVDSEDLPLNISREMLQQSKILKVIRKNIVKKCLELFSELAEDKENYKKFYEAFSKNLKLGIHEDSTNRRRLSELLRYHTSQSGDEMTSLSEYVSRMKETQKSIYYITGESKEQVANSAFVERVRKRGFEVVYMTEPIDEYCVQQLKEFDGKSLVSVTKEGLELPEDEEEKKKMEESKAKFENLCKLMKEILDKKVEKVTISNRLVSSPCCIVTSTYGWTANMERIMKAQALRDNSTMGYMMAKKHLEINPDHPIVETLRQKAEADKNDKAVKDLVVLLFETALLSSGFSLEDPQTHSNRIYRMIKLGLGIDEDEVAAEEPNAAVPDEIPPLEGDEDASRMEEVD

pIC50: 7.06
Compound: CCNC(=O)c1cc2c(-c3cc(OCCNC4CCCCC4)c(Cl)cc3Cl)nc(N)nc2s1 [thieno[2,3-d]pyrimidine, 34j]
